Where only a bound is given, the exact number is not on record here.

This assay has as its system HCV replicon. Description: Replicon based assay of HCV replication inhibition (NPT ELISA). The class given is cell-based, Hepatitis C virus. The following applies: Hepatitis C virus, Huh-7, 72 h, Table III; Huh-7 HCV replicon-containing cells, three days; read-out: Activity. The method, boiled down:
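Huh-7 cells carrying a bicistronic HCV replicon (neo, EMCV-IRES-driven NS3–NS5B) treated overnight after seeding with usually 6 concentrations, 10 to 0.03 micromolar, for three days at 37° C without G418. Replication read as NPT level by captured ELISA; matched-DMSO wells and interferon alpha as controls.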
Take `CCCCCCCCN(C)c1ccc(Nc2nc(-c3ccc(O)c(O)c3)cs2)cc1C(F)(F)F` [compound 571, 4-(2-(4-(N-methyl-N-octylamino)-3-(trifluoromethyl)phenylamino)thiazol-4-yl)benzene-1,2-diol]: the EC50 is less than 1000 nM.

As for `CCCCCCCCN(C)c1ccc(Nc2nc(-c3ccc4c(c3)NC(=O)CO4)cs2)cc1C(F)(F)F` [compound 572, 6-(2-(4-(N-methyl-N-octylamino)-3-(trifluoromethyl)phenylamino)thiazol-4-yl)-2H-benzo[b][1,4]oxazin-3(4H)-one], the EC50 lay within 1000 to 10000 nM.

As to `CCCCCCCCN(C)c1ccc(Nc2nc(-c3ccc4[nH]c(=O)oc4c3)cs2)cc1C(F)(F)F` [compound 573, 6-(2-(4-(N-methyl-N-octylamino)-3-(tnfluoromethyl)phenylamino)azol-4-yl)benzo[d]oxazol-2(3H)-one], the EC50 was less than 1000 nM.

On to `CCCCCCCCN(C)c1ccc(Nc2nc(-c3ccc(OCC(=O)O)cc3)c(C)s2)cc1C(F)(F)F` [compound 574, 2-(4-(2-(4-(N-methyl-N-octylamino)-3-(trifluoromethyl)phenylamino)-5-methylthiazol-4-yl)phenoxy)acetic acid], for which the EC50 was less than 1000 nM.

For the compound `CCCCCCCCN(C)c1ccc(Nc2nc(-c3ccc(-c4ccccn4)s3)cs2)cc1C(F)(F)F` [compound 576, 2-(trifluoromethyl)-N^1-methyl-N^1-octyl-N^4-(4-(5-(pyridin-2-yl)thiophen-2-yl)thiazol-2-yl)benzene-1,4-diamine], the EC50 is less than 1000 nM.

Consider `CCCCCCCCN(C)c1ccc(Nc2nc(-c3cc4ccccc4o3)cs2)cc1C(F)(F)F` [compound 577, N^4-(4-(benzofuran-2-yl)thiazol-2-yl)-2-(trifluoromethyl)-N^1-methyl-N^1-octylbenzene-1,4-diamine], for which the EC50 lay in the range of 1000 to 10000 nM.

With `CCCCCCCCN(C)c1ccc(Nc2nc(-c3sc(-c4cnccn4)nc3C)cs2)cc1C(F)(F)F` [compound 578, 2-(trifluoromethyl)-N^1-methyl-N^4-(4-(4-methyl-2-(pyrazin-2-yl)thiazol-5-yl)thiazol-2-yl)-N^1-octylbenzene-1,4-diamine], the EC50 is 1000 to 10000 nM.

On to `CCCCCCCCN(C)c1ccc(Nc2nc(-c3ccc(Cl)cc3)cs2)cc1C(F)(F)F` [compound 579, N^4-(4-(4-chlorophenyl)thiazol-2-yl)-2-(trifluoromethyl)-N^1-methyl-N^1-octylbenzene-1,4-diamine], for which the EC50 was less than 1000 nM.

As for `CCCCCCCCOc1ccc(Nc2nc(-c3ccc(F)cc3)cs2)cc1C(F)(F)F` [compound 580, N-(3-(trifluoromethyl)-4-(octyloxy)phenyl)-4-(4-fluorophenyl)thiazol-2-amine], the EC50 was less than 1000 nM.

Consider `CCCCCCCCOc1ccc(Nc2nc(-c3ccc(O)c(C(N)=O)c3)cs2)cc1C(F)(F)F` [compound 581, 5-(2-(3-(trifluoromethyl)-4-(octyloxy)phenylamino)thiazol-4-yl)-2-hydroxybenzamide], for which the EC50 was less than 1000 nM.

As to `CCCCCCCCOc1ccc(Nc2nc(-c3ccc(Cl)s3)cs2)cc1C(F)(F)F` [compound 582, 4-(5-chlorothiophen-2-yl)-N-(3-(trifluoromethyl)-4-(octyloxy)phenyl)thiazol-2-amine], the EC50 was less than 1000 nM.

For the compound `CCCCCCCCOc1ccc(Nc2nc(-c3ccc(O)c(O)c3)cs2)cc1C(F)(F)F` [compound 583, 4-(2-(3-(trifluoromethyl)-4-(octyloxy)phenylamino)thiazol-4-yl)benzene-1,2-diol], the EC50 was less than 1000 nM.

For `CCCCCCCCOc1ccc(Nc2nc(-c3ccc4c(c3)NC(=O)CO4)cs2)cc1C(F)(F)F` [compound 584, 6-(2-(3-(trifluoromethyl)-4-(octyloxy)phenylamino)thiazol-4-yl)-2H-benzo[b][1,4]oxazin-3(4H)-one], the EC50 was less than 1000 nM.

In the case of `CCCCCCCCOc1ccc(Nc2nc(-c3ccc4[nH]c(=O)oc4c3)cs2)cc1C(F)(F)F` [compound 585, 6-(2-(3-(trifluoromethyl)-4-(octyloxy)phenylamino)thiazol-4-yl)benzo[d]oxazol-2(3H)-one], the EC50 is less than 1000 nM.

Regarding `CCCCCCCCOc1ccc(Nc2nc(-c3ccc(OCC(=O)O)cc3)c(C)s2)cc1C(F)(F)F` [compound 586, 2-(4-(2-(3-(trifluoromethyl)-4-(octyloxy)phenylamino)-5-methylthiazol-4-yl)phenoxy)acetic acid], the EC50 is less than 1000 nM.

With `CCCCCCCCOc1ccc(Nc2nc(-c3ccccn3)cs2)cc1C(F)(F)F` [compound 587, N-(3-(trifluoromethyl)-4-(octyloxy)phenyl)-4-(pyridin-2-yl)thiazol-2-amine], the EC50 was less than 1000 nM.

Consider `CCCCCCCCOc1ccc(Nc2nc(-c3ccc(-c4ccccn4)s3)cs2)cc1C(F)(F)F` [compound 588, N-(3-(trifluoromethyl)-4-(octyloxy)phenyl)-4-(5-(pyridin-2-yl)thiophen-2-yl)thiazol-2-amine], for which the EC50 was less than 1000 nM.

On to `CCCCCCCCOc1ccc(Nc2nc(-c3cc4ccccc4o3)cs2)cc1C(F)(F)F` [compound 589, 4-(benzofuran-2-yl)-N-(3-(trifluoromethyl)-4-(octyloxy)phenyl)thiazol-2-amine], for which the EC50 was less than 1000 nM.

For the compound `CCCCCCCCOc1ccc(Nc2nc(-c3sc(-c4cnccn4)nc3C)cs2)cc1C(F)(F)F` [compound 590, N-(3-(trifluoromethyl)-4-(octyloxy)phenyl)-4-(4-methyl-2-(pyrazin-2-yl)thiazol-5-yl)thiazol-2-amine], the EC50 is less than 1000 nM.

Take `CCCCCCCCOc1ccc(Nc2nc(-c3ccc(Cl)cc3)cs2)cc1C(F)(F)F` [compound 591, 4-(4-chlorophenyl)-N-(3-(trifluoromethyl)-4-(octyloxy)phenyl)thiazol-2-amine]: the EC50 was less than 1000 nM.

In the case of `CCCCCOc1ccc(Nc2nc3c(s2)CCc2ccncc2-3)cc1C(F)(F)F` [compound 592, N-(3-(trifluoromethyl)-4-(pentyloxy)phenyl)-4,5-dihydrothiazolo[5,4-h]isoquinolin-2-amine], the EC50 is less than 1000 nM.

`CCCCCCCCOc1ccc(Nc2nc3c(s2)CCc2ccncc2-3)cc1` [compound 593, 4,5-dihydro-N-(4-(octyloxy)phenyl)thiazolo[5,4-h]isoquinolin-2-amine]: the EC50 is less than 1000 nM.

Regarding `CCCCCOc1ccc(Nc2nc3c(s2)CCc2ncccc2-3)cc1C(F)(F)F` [compound 594], the EC50 is less than 1000 nM.

In the case of `CCCCCCCCOc1ccc(Nc2nc3c(s2)CCc2ncccc2-3)cc1` [compound 595, 4,5-dihydro-N-(4-(octyloxy)phenyl)thiazolo[4,5-f]quinolin-2-amine], the EC50 lay in the range of 1000 to 10000 nM.

Turning to `CCCCCCCCOc1ccc(Nc2nc(-c3cnccn3)cs2)cc1C(F)(F)F` [compound 596, N-(3-(trifluoromethyl)-4-(octyloxy)phenyl)-4-(pyrazin-2-yl)thiazol-2-amine], the EC50 is less than 1000 nM.

As to `CCCC(CCC)Oc1ccc(Nc2nc(-c3cnccn3)cs2)cc1C(F)(F)F` [compound 597, N-(3-(trifluoromethyl)-4-(heptan-4-yloxy)phenyl)-4-(pyrazin-2-yl)thiazol-2-amine], the EC50 was less than 1000 nM.

For `CCCCCCCCOc1ccc(Nc2nc(-c3cnccn3)cs2)cc1` [compound 598, N-(4-(octyloxy)phenyl)-4-(pyrazin-2-yl)thiazol-2-amine], the EC50 was less than 1000 nM.

The values above are taken from patent publication US8088806B2 (Achillion Pharmaceuticals, Inc., priority 2005, dated 2012).
